{"source": "ChEMBL document CHEMBL3244093", "about": "“Synthesis and antiinflammatory activity of trisubstituted pyrimidines and triazines” (1978)"}
{"test_system": "Rattus norvegicus", "experiment": "Antiinflammatory activity in po dosed rat assessed as inhibition of carrageenan-induced foot edema compound administered 1 hr before carrageenan challenge measured after 3 to 3.5 hrs relative to untreated control", "assay_type": "functional", "units": {"ED50": "mg/kg"}}
{"compound": "CC(C)(C)C1CCc2ncncc2C1", "note": "(stereo unspecified)", "ED50": 58}
{"compound": "Nc1nccc(-c2ccncc2)n1", "note": "[listing 1 of 2 here]", "ED50": 38}
{"compound": "c1ccc(-c2cncnc2-c2ccncc2)cc1", "ED50": 95}
{"compound": "Cc1cnc(N)nc1-c1ccncc1", "ED50": 66}
{"compound": "Cc1c(-c2ccccc2)nnc[n+]1[O-]", "ED50": 64}
{"compound": "CN(C)CC(=O)Nc1ncc(-c2ccccc2)c(C(C)(C)C)n1", "ED50": 84}
{"compound": "Cc1ccc2c(-c3ccccc3)nc(=O)n(C(C)C)c2c1", "note": "[PROQUAZONE]", "ED50": 5.2}
{"compound": "CC(C)(C)c1c[n+]([O-])cnn1", "ED50": 98}
{"compound": "CC(C)(C)c1ccnc(O)n1", "ED50": 43}
{"compound": "COc1ccc(-c2cnc(N)nc2-c2ccc(OC)cc2)cc1", "ED50": 85}
{"compound": "CNc1nccc(-c2ccncc2)n1", "ED50": 49}
{"compound": "Cc1nccc(-c2ccncc2)n1", "ED50": 47}
{"compound": "CCCCC1C(=O)N(c2ccccc2)N(c2ccccc2)C1=O", "note": "[PHENYLBUTAZONE]", "ED50": 25}
{"test_system": "Rattus norvegicus", "experiment": "Antiinflammatory activity in rat assessed as inhibition of carrageenan-induced foot edema at 100 mg/kg, po administered 1 hr before carrageenan challenge measured after 3 to 3.5 hrs relative to untreated control", "assay_type": "functional", "units": {"inhibition in vivo at 100 mg/kg": "%"}}
{"compound": "c1cc(-c2ccncn2)ccn1", "inhibition in vivo at 100 mg/kg": 45}
{"compound": "Cc1nnc2c(n1)CC(C(C)(C)C)CC2", "note": "(stereo unspecified)", "inhibition in vivo at 100 mg/kg": "< 5"}
{"compound": "NC(=O)Nc1nccc(-c2ccncc2)n1", "inhibition in vivo at 100 mg/kg": 12}
{"compound": "Nc1ncc2c(n1)CCCCCCCCCC2", "inhibition in vivo at 100 mg/kg": "< 5"}
{"compound": "CC(C)(C)c1ccnc(N)n1", "inhibition in vivo at 100 mg/kg": 32}
{"compound": "CC(=O)Nc1nccc(-c2ccncc2)n1", "inhibition in vivo at 100 mg/kg": 52}
{"compound": "c1ccc(-c2nnc3c(ccc4ccccc43)n2)cc1", "inhibition in vivo at 100 mg/kg": "< 5"}
{"compound": "CN(C)c1nccc(C(C)(C)C)n1", "inhibition in vivo at 100 mg/kg": 18}
{"compound": "CC(C)(C)c1nc(N)ncc1-c1ccc(Cl)cc1", "inhibition in vivo at 100 mg/kg": 25}
{"compound": "CC(C)(C)c1ccnc(S)n1", "inhibition in vivo at 100 mg/kg": 22}
{"compound": "Cc1ncc(-c2ccccc2)c(C(C)(C)C)n1", "inhibition in vivo at 100 mg/kg": 22}
{"compound": "CC(C)(C)Nc1nccc(C(C)(C)C)n1", "inhibition in vivo at 100 mg/kg": 26}
{"compound": "CC(C)(C)c1cnc(-c2ccccc2)nn1", "inhibition in vivo at 100 mg/kg": 38}
{"compound": "Cc1nnc2c([n+]1[O-])CC(C(C)(C)C)CC2", "note": "(stereo unspecified)", "inhibition in vivo at 100 mg/kg": 48}
{"compound": "CC(C)(C)C1CCc2nnc[n+]([O-])c2C1", "note": "(stereo unspecified)", "inhibition in vivo at 100 mg/kg": 36}
{"compound": "CC(C)(C)c1nc(N)ncc1-c1cccc(C(F)(F)F)c1", "inhibition in vivo at 100 mg/kg": 8}
{"compound": "CC(C)(C)c1nc(N)ncc1-c1ccccc1", "inhibition in vivo at 100 mg/kg": 46}
{"compound": "Cc1nnc(C(C)(C)C)c[n+]1[O-]", "inhibition in vivo at 100 mg/kg": 22}
{"compound": "CC(C)(C)C1CCc2nc(N)ncc2C1", "note": "(stereo unspecified)", "inhibition in vivo at 100 mg/kg": 41}
{"compound": "CC(C)(C)c1nc(-c2ccccc2)ncc1-c1ccccc1", "inhibition in vivo at 100 mg/kg": "< 5"}
{"compound": "CC(C)(C)c1ccnc(NCCc2ccccc2)n1", "inhibition in vivo at 100 mg/kg": 10}
{"compound": "Cc1ncc(C)c(-c2ccccc2)n1", "inhibition in vivo at 100 mg/kg": 12}
{"compound": "Cc1cnc(N)nc1-c1ccccc1", "inhibition in vivo at 100 mg/kg": 34}
{"compound": "CC(C)(C)C1CCc2nncnc2C1", "note": "(stereo unspecified)", "inhibition in vivo at 100 mg/kg": 49}
{"compound": "CNc1nccc(C(C)(C)C)n1", "inhibition in vivo at 100 mg/kg": 34}
{"compound": "Cc1ncc2c(n1)-c1ccccc1C2", "inhibition in vivo at 100 mg/kg": "< 5"}
{"compound": "Cc1cncnc1-c1ccncc1", "inhibition in vivo at 100 mg/kg": 50}
{"compound": "N#CNc1nccc(-c2ccncc2)n1", "inhibition in vivo at 100 mg/kg": "< 5"}
{"compound": "CCOC(=O)Nc1ncc(-c2ccccc2)c(C(C)(C)C)n1", "inhibition in vivo at 100 mg/kg": 24}
{"compound": "CC(C)(C)c1ccnc(Nc2ccccc2)n1", "inhibition in vivo at 100 mg/kg": 21}
{"compound": "Cc1ncc2c(n1)-c1ccccc1CCC2", "inhibition in vivo at 100 mg/kg": "< 5"}
{"compound": "CCOC(=O)Nc1nccc(-c2ccncc2)n1", "inhibition in vivo at 100 mg/kg": 31}
{"compound": "CC(=O)N(C(C)=O)c1ncc(-c2ccccc2)c(C(C)(C)C)n1", "inhibition in vivo at 100 mg/kg": 22}
{"compound": "Nc1nccc(-c2ccncc2)n1", "note": "[listing 2 of 2 here]", "inhibition in vivo at 100 mg/kg": 18}
{"compound": "c1ccc2c(c1)ccc1ncnnc12", "inhibition in vivo at 100 mg/kg": "< 5"}
{"compound": "c1ccc2c(c1)CCCc1ncnnc1-2", "inhibition in vivo at 100 mg/kg": "< 5"}
{"compound": "CN1CCc2nc(N)ncc2C1", "inhibition in vivo at 100 mg/kg": "< 5"}
{"compound": "CC(=O)Nc1ncc(-c2ccccc2)c(C(C)(C)C)n1", "inhibition in vivo at 100 mg/kg": 29}
{"compound": "Nc1ncc2c(n1)-c1ccccc1CC2", "inhibition in vivo at 100 mg/kg": 32}
{"compound": "CC(C)(C)c1nc(NN)ncc1-c1ccccc1", "inhibition in vivo at 100 mg/kg": "< 5"}
{"compound": "CSc1nccc(C(C)(C)C)n1", "inhibition in vivo at 100 mg/kg": 35}
{"compound": "CC(C)(C)c1ccnc(NCc2ccccc2)n1", "inhibition in vivo at 100 mg/kg": 14}
{"compound": "CC(C)(C)c1ncncc1-c1ccccc1", "inhibition in vivo at 100 mg/kg": 48}
{"compound": "c1ncc2c(n1)CCCCCCCCCC2", "inhibition in vivo at 100 mg/kg": "< 5"}
{"compound": "Cc1cncnc1-c1ccccc1", "inhibition in vivo at 100 mg/kg": 48}
{"compound": "COc1ccc(-c2cnc(C)nc2-c2ccc(OC)cc2)cc1", "inhibition in vivo at 100 mg/kg": "< 5"}
{"compound": "CN1CCc2ncncc2C1", "inhibition in vivo at 100 mg/kg": 50}
{"compound": "CC(C)(C)c1nc(NC#N)ncc1-c1ccccc1", "inhibition in vivo at 100 mg/kg": "< 5"}
{"compound": "Cc1ncc(C(C)(C)C)nn1", "inhibition in vivo at 100 mg/kg": 25}
{"compound": "c1ccc2c(c1)CCc1cncnc1-2", "inhibition in vivo at 100 mg/kg": 32}
{"compound": "CC(C)(C)c1nc(NC(=O)CCCC(=O)O)ncc1-c1ccccc1", "inhibition in vivo at 100 mg/kg": 5}
{"compound": "CC(C)(C)c1ccnc(Cl)n1", "inhibition in vivo at 100 mg/kg": "< 5"}
{"compound": "Cc1ncc2c(n1)-c1ccccc1CC2", "inhibition in vivo at 100 mg/kg": "< 5"}
{"compound": "Nc1nccc(-c2cccnc2)n1", "inhibition in vivo at 100 mg/kg": 32}
{"compound": "Cc1nnc2c(ccc3ccccc32)n1", "inhibition in vivo at 100 mg/kg": "< 5"}
{"compound": "Cc1nc(-c2ccccc2)nnc1-c1ccccc1", "inhibition in vivo at 100 mg/kg": "< 5"}
{"compound": "CC(C)(C)c1nc(NC(N)=O)ncc1-c1ccccc1", "inhibition in vivo at 100 mg/kg": 14}
{"compound": "Cc1ncc2c(n1)CCN(C)C2", "inhibition in vivo at 100 mg/kg": 45}
{"compound": "CC(C)(C)c1c[n+]([O-])c(-c2ccccc2)nn1", "inhibition in vivo at 100 mg/kg": 35}
{"compound": "Cc1ncnnc1-c1ccccc1", "inhibition in vivo at 100 mg/kg": "< 5"}
{"compound": "Nc1nccc(-c2ccccn2)n1", "inhibition in vivo at 100 mg/kg": 17}
{"compound": "Cc1ncc2c(n1)CCCCCCCCCC2", "inhibition in vivo at 100 mg/kg": "< 5"}
{"compound": "Nc1ncc(-c2ccccc2)c(-c2ccncc2)n1", "inhibition in vivo at 100 mg/kg": 48}
{"compound": "CC(C)(C)C1CCc2nnc(-c3ccccc3)[n+]([O-])c2C1", "note": "(stereo unspecified)", "inhibition in vivo at 100 mg/kg": 15}
{"compound": "c1ccc(-c2nccc(-c3ccncc3)n2)cc1", "inhibition in vivo at 100 mg/kg": 42}
{"compound": "CNc1ncc(-c2ccccc2)c(C(C)(C)C)n1", "inhibition in vivo at 100 mg/kg": 37}
{"compound": "CCCCc1nnc2c(ccc3ccccc32)n1", "inhibition in vivo at 100 mg/kg": "< 5"}
{"compound": "Cc1ncc2c(n1)CCC(C(C)(C)C)C2", "note": "(stereo unspecified)", "inhibition in vivo at 100 mg/kg": "< 5"}
